Where only a bound is given, the exact number is not on record here.

Chain of Nonstructural protein 3 (A0A024AXB9 whole entry): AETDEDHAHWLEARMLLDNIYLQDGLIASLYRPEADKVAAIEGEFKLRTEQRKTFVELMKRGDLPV

This experiment addresses Nonstructural protein 3 (Zika virus, UniProt A0A024AXB9). Kind of experiment: Functional biochemical assay to identify treatments for viral infectious disease that targets Zika NS2B-NS3 protease. Utilizing a direct enzyme activity measurement method, reading the fluorescence intensity is used to characterize the relative potency of inhibitors as IC50. Further details: species or system PRVABC59.
`CC(C)c1noc2nc(C3CC3)cc(C(=O)Nc3cccc(CN)c3)c12` registered an IC50 of more than 99.5 µM.

The compound `NCc1ccc(NS(=O)(=O)c2ccc(Oc3ccccc3Cl)cc2)cc1` yielded an IC50 of more than 99.5 µM.

As for `CC(C)c1ncc(OC2CCC2)c(C(=O)Nc2cccc(CN)c2)n1`, the IC50 was more than 99.5 µM.

With `COc1ccc(F)cc1-c1ccc(S(=O)(=O)Nc2ccc(Cl)cc2C(N)=O)cc1`, the IC50 is 73.2 µM.

Compound `NCc1cccc(NC(=O)[C@@H](NC(=O)OCc2ccccc2)C2CCN(Cc3cn[nH]c3)CC2)c1` registered an IC50 of more than 99.5 µM.

On to `Cc1c(CN)cccc1NS(=O)(=O)c1ccc(Oc2ccccc2Cl)cc1`, for which the IC50 was more than 99.5 µM.

In the case of `N[C@H]1CCc2ncc(NS(=O)(=O)c3ccc(Oc4ccccc4Cl)cc3)cc2C1`, the IC50 is more than 99.5 µM.

Regarding `O=C(Nc1cc(Cl)cc(C(=O)Nc2cccc([C@H]3CCCCN3)c2)c1)OCc1ccccc1`, the IC50 was found to be 57.8 µM.

As for `Cc1nnsc1CN1CCC([C@@H](NC(=O)OCc2ccccc2)C(=O)Nc2cccc(CN)c2)CC1`, the IC50 is more than 99.5 µM.

Turning to `N#Cc1cc(Cl)cc(C(=O)Nc2cccc(CN)c2)c1`, half-maximal inhibition (IC50) required 11 µM.

Compound `Cc1cc(=O)c(C(=O)Nc2cccc(CN)c2)nn1-c1ccccc1C(F)(F)F` returned an IC50 of more than 99.5 µM.

`C[C@H]1CCN1C(=O)Cn1ccnc(N2CC[C@H](CO)C2)c1=O`: the IC50 was more than 99.5 µM.

Regarding `COc1cn(-c2cccc(C(F)(F)F)c2)nc1C(=O)Nc1cccc(CN)c1`, the IC50 is more than 99.5 µM.

As for `NCc1ccncc1NS(=O)(=O)c1ccc(Oc2ccccc2Cl)cc1`, it took 94.2 µM to reach half-maximal inhibition (IC50).

Turning to `NCc1cccc(NC(=O)c2cc(Cl)ccc2Oc2cccc(Cl)c2)c1`, the IC50 was determined as 61.7 µM.

In the case of `NCc1cccc(NC(=O)c2cc(C3CCCCC3)nc3ccc(F)cc23)c1`, the IC50 was more than 99.5 µM.

As to `NCc1cccc(NC(=O)c2cccc(Oc3ccc(Cl)c(Cl)c3)n2)c1`, 39.4 µM corresponded to half-maximal inhibition (IC50).

For the compound `NCc1cccc(NC(=O)c2cc(C3CC3)nc3c(Cl)cnn23)c1`, the IC50 was more than 99.5 µM.

For the compound `O=C(Cn1ccnc(N2CC[C@H](CO)C2)c1=O)N[C@H]1CCOC1`, the IC50 is more than 99.5 µM.

For `CCCOc1ccc2[nH]cc(CN3CCC(c4cscn4)CC3)c2c1`, the IC50 was more than 99.5 µM.

`NCc1cccc(NC(=O)c2cccn3cc(CN4CCCC4)nc23)c1`: half-maximal inhibition (IC50) was put at 16.4 µM.

Compound `CC(C)Oc1cc(CN)ccc1NS(=O)(=O)c1ccc(Oc2ccccc2Cl)cc1` showed an IC50 of 64.4 µM.

On to `NCc1cccc(NC(=O)Cc2cccc(Oc3ccncc3Br)c2)c1`, for which the IC50 is more than 99.5 µM.

Consider `O=C(Nc1cc(Cl)cc(C(=O)Nc2ccnc(OC3CNC3)c2)c1)OCc1ccccc1`, for which the IC50 stood at 66.1 µM.

For the compound `NCc1cccc(NC(=O)c2cc(CO)cc(NC(=O)OCc3ccccc3)c2)c1`, the IC50 is more than 99.5 µM.

In turn, `NCc1cccc(/C=C/c2cc(Cl)cc(NC(=O)OCc3ccccc3)c2)c1` came in with an IC50 of 22.3 µM.

For the compound `CN1CCC[C@H]1COc1ccc([C@@H](NC(=O)OCc2ccccc2)C(=O)Nc2cccc(CN)c2)cc1`, the IC50 is more than 99.5 µM.

As to `NCc1cccc(NC(=O)c2cccc3c2O[C@H](c2ccccc2)C(=O)N3)c1`, it took 56.4 µM to reach half-maximal inhibition (IC50).

The compound `NCc1cccc(NC(=O)c2cc(C(F)(F)F)ccc2SC2CCCC2)c1` gave an IC50 of 84.3 µM.

In turn, `Cc1ccc(NS(=O)(=O)c2ccc(Oc3ccccc3Cl)cc2)cc1CN` had an IC50 of more than 99.5 µM.

The compound `CCOc1cccc(-c2ccc(S(=O)(=O)Nc3cc4c(cc3C(=O)O)CCC4)cc2)c1` gave an IC50 of 14.2 µM.

`Cc1ccc(Sc2ncccc2C(=O)Nc2cccc(CN)c2)cc1C` came in with an IC50 of more than 99.5 µM.

As to `CCOC(=O)Nc1cc(Cl)cc(C(=O)Nc2cccc(CN)c2)c1`, it took 3.2 µM to reach half-maximal inhibition (IC50).

`NCc1cccc(NC(=O)[C@@H](NC(=O)OCc2ccccc2)c2ccc(OCc3nc4c(s3)COCC4)cc2)c1` displayed an IC50 of 65.1 µM.

Consider `COCCN(C)C(=O)Cn1ccnc(N2CC[C@@H](CO)C2)c1=O`, for which the IC50 is more than 99.5 µM.

Compound `NCc1ccc(F)c(NC(=O)c2cc(Cl)cc(NC(=O)OCc3ccccc3)c2)c1` yielded an IC50 of 4.35 µM.

`NCc1cccc(NC(=O)[C@H](NC(=O)OCc2ccccc2)C2CCN(C(=O)Cn3ccnc3)CC2)c1` gave an IC50 of more than 99.5 µM.

With `NC[C@@H](NC(=O)c1cc(Cl)cc(NC(=O)OCc2ccccc2)c1)c1ccccc1`, the IC50 is more than 99.5 µM.

In turn, `CC(C)c1nn(-c2ccccc2)cc1C(=O)Nc1cccc(CN)c1` yielded an IC50 of more than 99.5 µM.

Regarding `NC(=O)c1cc(Cl)ccc1NS(=O)(=O)c1ccc(-c2ccc(F)cc2)cc1`, the IC50 came out at 65.6 µM.

`NCc1cccc(NC(=O)c2cc(C3CC3)n3nccc3n2)c1`: the IC50 was more than 99.5 µM.

Regarding `CC[C@H](CO)NC(=O)Cn1ccnc(N2CC[C@H](CO)C2)c1=O`, the IC50 was more than 99.5 µM.

The compound `CC[C@H](C(=O)Nc1cccc(CN)c1)n1cc(Br)c(C(F)(F)F)n1` showed an IC50 of more than 99.5 µM.

Take `CC(C)(C)OC(=O)NCc1cc(Cl)cc(C(=O)O)c1`: the IC50 is more than 99.5 µM.

`O=C1Nc2ccccc2[C@H]1N1CCC(c2nc3ccccc3s2)CC1`: the IC50 was more than 99.5 µM.

With `c1ccc(COc2ccc3c(CN4CCC(c5cscn5)CC4)c[nH]c3c2)cc1`, the IC50 is more than 99.5 µM.

In turn, `CCc1onc(-c2ccc(Br)cc2)c1C(=O)Nc1cccc(CN)c1` registered an IC50 of more than 99.5 µM.

`O=C(Nc1cc(Cl)cc(C(=O)NCC[C@H]2COCCN2)c1)OCc1ccccc1` showed an IC50 of more than 99.5 µM.

For `CC(C)(C)Cn1c(=O)[nH]c2cccc(C(=O)Nc3cccc(CN)c3)c21`, half-maximal inhibition (IC50) was put at 37.2 µM.

On to `CC(C)(C)NS(=O)(=O)c1cccc(C(=O)Nc2cccc(CN)c2)c1`, for which the IC50 was more than 99.5 µM.

Compound `O=C(Nc1cc(Cl)cc(C(=O)Nc2cccc([C@H]3CCCN3)c2)c1)OCc1ccccc1` returned an IC50 of 27.6 µM.

In the case of `Cn1nc(C2CC2)c2c(C(=O)Nc3cccc(CN)c3)cc(C3CC3)nc21`, the IC50 was more than 99.5 µM.

In the case of `COCCCC(=O)N1CCC([C@H](NC(=O)OCc2ccccc2)C(=O)Nc2cccc(CN)c2)CC1`, the IC50 was more than 99.5 µM.

`NCc1cccc(NC(=O)c2cc(C3CC3)nn2-c2ccccc2)c1`: the IC50 is more than 99.5 µM.

In the case of `CC(C)(C#N)c1cc(C(=O)Nc2cccc(CN)c2)cc(C(F)(F)F)c1`, the IC50 is more than 99.5 µM.

Consider `NCc1cccc(NC(=O)[C@@H](NC(=O)OCc2ccccc2)c2ccc(OC[C@H]3CCS(=O)(=O)C3)cc2)c1`, for which the IC50 was more than 99.5 µM.

On to `CCC1(NC(=O)Cn2ccnc(N3CC[C@@H](CO)C3)c2=O)CC1`, for which the IC50 is more than 99.5 µM.

`NCc1cccc(NC(=O)c2cc(Cl)cc(Cl)c2O)c1` displayed an IC50 of more than 99.5 µM.

For `CCCn1nc(C)c2c(C(=O)Nc3cccc(CN)c3)cc(C)nc21`, the IC50 is more than 99.5 µM.

Compound `CCC1CN(C(=O)Cn2ccnc(N3CC[C@@H](CO)C3)c2=O)C1` displayed an IC50 of more than 99.5 µM.

`Cc1c(F)cc(C(=O)Nc2cccc(CN)c2)c(F)c1NC(=O)OCc1ccccc1` showed an IC50 of 63.9 µM.

`NCc1cccc(NC(=O)c2ccc(=O)n(Cc3ccccc3Cl)c2)c1` returned an IC50 of more than 99.5 µM.

Turning to `C#Cc1cc(CN)ccc1NS(=O)(=O)c1ccc(Oc2ccccc2Cl)cc1`, the 50% inhibitory concentration (IC50) is more than 99.5 µM.

`Cc1ccc(S(=O)(=O)N2CCC([C@@H](NC(=O)OCc3ccccc3)C(=O)Nc3cccc(CN)c3)CC2)c(C)c1` had an IC50 of 71.9 µM.

Turning to `CCc1cc(C(=O)Nc2cccc(CN)c2)sc1-c1ccc(Cl)cc1`, the concentration for half-maximal inhibition (IC50) stood at 8.99 µM.

Compound `O=C(Cn1ccnc(N2CC[C@H](CO)C2)c1=O)NCc1cc[nH]n1` returned an IC50 of more than 99.5 µM.

With `Cc1ccc(C(=O)Nc2cccc(CN)c2)cc1NC(=O)Cc1ccncc1`, the IC50 was more than 99.5 µM.

As for `c1cncc(-c2cccc(NCc3c[nH]c4ccccc34)c2)c1`, the IC50 was more than 99.5 µM.

In turn, `NCc1cccc(NC(=O)c2nn(-c3ccccc3F)cc2Br)c1` returned an IC50 of more than 99.5 µM.

In turn, `O=C(Nc1cc(Cl)cc(C(=O)Nc2cccc([C@H]3CNCCO3)c2)c1)OCc1ccccc1` displayed an IC50 of more than 99.5 µM.

Consider `NCc1cccc(NC(=O)c2cc(C(F)(F)F)nn2CC2CCC2)c1`, for which the IC50 was more than 99.5 µM.

In turn, `CCCC(=O)Nc1cc(Cl)cc(C(=O)Nc2cccc(CN)c2)c1` registered an IC50 of 4.37 µM.

The compound `C[C@H]1CCCCN1C(=O)Cn1ccnc(N2CC[C@@H](CO)C2)c1=O` showed an IC50 of more than 99.5 µM.

`NCc1cccc(NC(=O)c2cc(C3CC3)n3nc(C(F)(F)F)cc3n2)c1`: the IC50 is more than 99.5 µM.

On to `O=C(O)c1cc(Cl)cc(NS(=O)(=O)c2ccc(-c3ccc(F)cc3)cc2)c1`, for which the IC50 came to 75.7 µM.

Compound `Cc1cc(CN)cc(NS(=O)(=O)c2ccc(Oc3ccccc3Cl)cc2)c1` registered an IC50 of more than 99.5 µM.

The compound `NCc1cccc(NC(=O)c2c(C(F)F)nc3cnccn23)c1` showed an IC50 of more than 99.5 µM.

`CNC(=O)CN1CCC([C@@H](NC(=O)OCc2ccccc2)C(=O)Nc2cccc(CN)c2)CC1` registered a half-inhibitory concentration (IC50) of more than 99.5 µM.

Turning to `NCc1cccc(NC(=O)c2ccnc3[nH]c(C4CCOCC4)nc23)c1`, the IC50 is more than 99.5 µM.

Consider `Cc1ccc(NC(=O)c2cc(Cl)ccc2Cl)c(C(=O)Nc2cccc(CN)c2)c1`, for which the IC50 is 53.9 µM.

`O=c1[nH]c2cccc(N3CCN(Cc4c[nH]c5ccccc45)CC3)c2o1` displayed an IC50 of more than 99.5 µM.

For `Cc1cc(C(=O)Nc2cccc(CN)c2)cc(NC(=O)OCc2ccccc2)c1Cl`, 39 µM corresponded to half-maximal inhibition (IC50).

`N[C@@H]1CC[C@H](NC(=O)c2cc(Cl)cc(NC(=O)OCc3ccccc3)c2)C1`: half-maximal inhibition (IC50) required 45.3 µM.

For `CN(c1ccc(Oc2ccccc2Cl)cc1)S(=O)(=O)c1cc(F)c(Cl)cc1C(=O)O`, the IC50 is more than 99.5 µM.

Compound `c1ccc2c(CNC3CCN(Cc4cscn4)CC3)c[nH]c2c1` registered an IC50 of more than 99.5 µM.

As to `CCCCCn1cc(C(=O)Nc2cccc(CN)c2)c2ccccc21`, inhibition was half-maximal at 70.4 µM (IC50).

The compound `Cc1ccc(-n2nc(C(=O)Nc3cccc(CN)c3)ccc2=O)cc1Cl` returned an IC50 of more than 99.5 µM.

Consider `Cc1cc(C(=O)Nc2cccc(CN)c2)nc2c(C(C)C)cnn12`, for which the IC50 was more than 99.5 µM.

With `Cc1noc(C)c1Cc1ccc(C(=O)Nc2cccc(CN)c2)o1`, the IC50 was more than 99.5 µM.

Compound `CN1CCC(COc2ccc([C@@H](NC(=O)OCc3ccccc3)C(=O)Nc3cccc(CN)c3)cc2)CC1` registered an IC50 of 82.3 µM.

On to `NCc1cccc(NC(=O)c2nn(-c3ccc(Cl)c(F)c3)c3c2CCC3)c1`, for which 36.9 µM corresponded to half-maximal inhibition (IC50).

The compound `CCC[C@H](Oc1ccc(Cl)cc1C)C(=O)Nc1cccc(CN)c1` came in with an IC50 of more than 99.5 µM.

With `CCCN(C)CC(=O)N1CCC([C@@H](NC(=O)OCc2ccccc2)C(=O)Nc2cccc(CN)c2)CC1`, the IC50 was more than 99.5 µM.

Usually IC50 stands for the concentration that gives 50% inhibition. A low value points to greater potency in that assay.

For the origin of these results see ChEMBL document CHEMBL5604062, “ASAP - ZIKV NS2B-NS3 protease fluorescence dose response” (2024).
